According to patent US9232796B2, “Herbicidal compositions comprising 4-amino-3-chloro-5-fluoro-6-(4-chloro-2-fluoro-3-methoxyphenyl) pyridine-2-carboxylic acid or a derivative thereof and acetyl-CoA carboxylase (ACCase) inhibitors” (DOW AGROSCIENCES LLC, priority 2012, dated 2016):
Values joined by “and” are separate entries in the source; they are usually repeats but may differ in a detail not shown here. Identical values can stand only once.

Key:
IPOHE = assay: Example I postemergence foliar-applied, greenhouse, direct seeded rice weeds; assay type: in vivo, Ipomoea hederacea Jacq.
Method in brief: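 Foliar spray, 187 L/ha, 1.25% (v/v) COC; plants at 1st–4th true leaf, greenhouse ~29/26 °C, 14 h light. Compound A acid/esters (SC) ± ACCase inhibitors, rates on ae/ai basis. Visual 0–100% injury vs untreated at ~3 wk; Colby expected values.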

AVEFA = assay: Example III postemergence foliar-applied, greenhouse, weeds common to row crops such as corn and soybeans; assay type: in vivo, Avena fatua L.
Text: Seeds or nutlets of the desired test plant species were planted in a soil matrix prepared by mixing a loam or sandy loam soil (e.g., 28.6 percent silt, 18.8 percent clay, and 52.6 percent sand, with a pH of about 5.8 and an organic matter content of about 1.8 percent) and calcareous grit in an 80 to 20 ratio. The soil matrix was contained in plastic pots with a surface area of 84.6 square centimeters (cm^2) and a volume of 560 cubic centimeters (cm^3). When required to ensure good germination and healthy plants, a fungicide treatment and/or other chemical or physical treatment was applied. The plants were grown for 7-31 days (d) in a greenhouse with an approximate 15 hour (h) photoperiod which was maintained at about 23-29° C. during the day and 22-28° C. during the night. Nutrients (Peters Excel® 15-5-15 5-Ca 2-Mg) and water were added on a regular basis and supplemental lighting was provided with overhead metal halide 1000-Watt lamps as necessary. The plants were employed for testing when they reached the first, second, or third true leaf stage.
Treatment requirements were calculated based upon the rates being tested, the concentration of active ingredient or acid equivalent in the formulation, and a 12 mL application volume at a rate of 187 L/ha.
Treatments consisted of the acid or esters of 4-amino-3-chloro-5-fluoro-6-(4-chloro-2-fluoro-3-methoxy-phenyl)pyridine-2-carboxylic acid (Compound A), each formulated as an SC (suspension concentrate), and various herbicidal components alone and in combination.
Other herbicidal components were applied on an acid equivalent basis and included acetyl coA carboxylase (ACCase)-inhibiting herbicide (cyclohexanedione and aryloxyphenoxypropionate chemical classes) quizalofop-p-ethyl formulated as Assure® II.
All stock solutions and applications solutions were visually inspected for compound compatibility prior to application. Compound requirements are based upon a 12 mL application volume at a rate of 187 liters per hectare (L/ha). Formulated compounds were applied to the plant material with an overhead Mandel track sprayer equipped with 8002E nozzles calibrated to deliver 187 L/ha over an application area of 0.503 square meters (m^2) at a spray height of 18 to 20 inches (46 to 50 cm) above the average plant canopy height. Control plants were sprayed in the same manner with the solvent blank.
The treated plants and control plants were placed in a greenhouse as described above and watered by sub-irrigation to prevent wash-off of the test compounds. After approximately 2 weeks, the condition of the test plants as compared with that of the untreated plants was determined visually and scored on a scale of 0 to 100 percent where 0 corresponds to no injury or growth inhibition and 100 corresponds to complete kill.
Colby's equation was used to determine the herbicidal effects expected from the mixtures (Colby, S. R. 1967. Calculation of the synergistic and antagonistic response of herbicide combinations. Weeds 15:20-22.).
The following equation was used to calculate the expected activity of mixtures containing two active ingredients, A and B: Expected=A+B−(A×B/100)

SMILES: C[C@@H](Oc1ccc(Oc2nc3ccc(Cl)cc3o2)cc1)C(=O)N(C)c1ccccc1F [Metamifop, (2R)-2-[4-[(6-chloro-2-benzoxazolyl)oxy]phenoxy]-N-(2-fluorophenyl)-N-methylpropanamide]
- Visual Weed Control (%) - 22 DAA IPOHE Obs (IPOHE; 9.38 gai/ha): 0%
- Visual Weed Control (%) - 22 DAA IPOHE Obs (IPOHE; 18.75 gai/ha): 0%
- Visual Weed Control (%) - 22 DAA IPOHE Obs (IPOHE; 37.5 gai/ha): 0%
- Visual Weed Control (%) - 24 DAA IPOHE Obs (IPOHE; 150 gai/ha): 0%

SMILES: CCCCOC(=O)[C@@H](C)Oc1ccc(Oc2ccc(C#N)cc2F)cc1 [Cyhalofop-butyl, butyl(2R)-2-[4-(4-cyano-2-fluorophenoxy)phenoxy]propanoate, reference compound]
- Visual Weed Control (%) - 20 DAA IPOHE Obs (IPOHE; 280 gai/ha): 0%

SMILES: COc1c(Cl)ccc(-c2nc(C(=O)O)c(Cl)c(N)c2F)c1F [Compound A Acid, 4-amino-3-chloro-6-(4-chloro-2-fluoro-3-methoxyphenyl)-5-fluoropyridine-2-carboxylic acid]
- Visual Weed Control (%) - 14 DAA AVEFA Obs (AVEFA; Compound A Acid 3.75 gae/ha): 0%
- Visual Weed Control (%) - 14 DAA AVEFA Obs (AVEFA; Compound A Acid 7.5 gae/ha): 0%
- Visual Weed Control (%) - 14 DAA AVEFA Obs (AVEFA; Compound A Acid 15 gae/ha): 0%
- Visual Weed Control (%) - 19 DAA IPOHE Obs (IPOHE; 4.38 gae/ha): 0%
- Visual Weed Control (%) - 20 DAA IPOHE Obs (IPOHE; 4.38 gae/ha): 10% and 0%
- Visual Weed Control (%) - 24 DAA IPOHE Obs (IPOHE; 4.38 gae/ha): 10%
- Visual Weed Control (%) - 19 DAA IPOHE Obs (IPOHE; 8.75 gae/ha): 10%
- Visual Weed Control (%) - 20 DAA IPOHE Obs (IPOHE; 8.75 gae/ha): 30% and 20%
- Visual Weed Control (%) - 24 DAA IPOHE Obs (IPOHE; 8.75 gae/ha): 10%
- Visual Weed Control (%) - 19 DAA IPOHE Obs (IPOHE; 17.5 gae/ha): 35%
- Visual Weed Control (%) - 20 DAA IPOHE Obs (IPOHE; 17.5 gae/ha): 40%
- Visual Weed Control (%) - 24 DAA IPOHE Obs (IPOHE; 17.5 gae/ha): 30%
- Visual Weed Control (%) - 20 DAA IPOHE Obs (IPOHE; 19.4 gae/ha): 15%

SMILES: COc1c(Cl)ccc(-c2nc(C(=O)OCc3ccccc3)c(Cl)c(N)c2F)c1F [Compound A Benzyl Ester, benzyl ester of 4-amino-3-chloro-5-fluoro-6-(4-chloro-2-fluoro-3-methoxy-phenyl)pyridine-2-carboxylic acid]
- Visual Weed Control (%) - 14 DAA AVEFA Obs (AVEFA; Compound A Benzyl Ester 3.75 gae/ha): 10%
- Visual Weed Control (%) - 14 DAA AVEFA Obs (AVEFA; Compound A Benzyl Ester 7.5 gae/ha): 0%
- Visual Weed Control (%) - 14 DAA AVEFA Obs (AVEFA; Compound A Benzyl Ester 15 gae/ha): 10%
- Visual Weed Control (%) - 19 DAA IPOHE Obs (IPOHE; 4.38 gae/ha): 0%
- Visual Weed Control (%) - 19 DAA IPOHE Obs (IPOHE; 8.75 gae/ha): 0%
- Visual Weed Control (%) - 21 DAA IPOHE Obs (IPOHE; 16 gae/ha): 10%
- Visual Weed Control (%) - 21 DAA IPOHE Obs (IPOHE; 32 gae/ha): 25%
- Visual Weed Control (%) - 22 DAA IPOHE Obs (IPOHE; 32 gae/ha): 45%

SMILES: CCOC(=O)[C@@H](C)Oc1ccc(Oc2cnc3cc(Cl)ccc3n2)cc1 [Quizalofop-p-ethyl, ethyl(2R)-2-[4-[(6-chloro-2-quinoxalinyl)oxy]phenoxy]propanoate, reference compound]
- Visual Weed Control (%) - 14 DAA AVEFA Obs (AVEFA; Quizalofop-p-ethyl 14.25 gae/ha): 40%
- Visual Weed Control (%) - 22 DAA IPOHE Obs (IPOHE; 1.88 gai/ha): 0%
- Visual Weed Control (%) - 22 DAA IPOHE Obs (IPOHE; 3.75 gai/ha): 0%
- Visual Weed Control (%) - 22 DAA IPOHE Obs (IPOHE; 7.5 gai/ha): 0%
- Visual Weed Control (%) - 20 DAA IPOHE Obs (IPOHE; 15 gai/ha): 0%
- Visual Weed Control (%) - 20 DAA IPOHE Obs (IPOHE; 30 gai/ha): 0%
